Laboratory results reported in patent publication US20240366624A1, “METHODS AND COMPOSITIONS FOR TREATING THROMBOTIC DISEASE” (Washington University, priority 2023, published 2024).

Tested on: WT (C57BL/6) mice
Assay: Ex vivo platelet activation and aggregation after intravenous injection
Format: in vivo, mouse
Method: FIG. 19(A-Q) is an exemplary embodiment of B12-5 having an antithrombotic effect without prolonging tail bleeding times in mice in accordance with the present disclosure. FIG. 19(A-C): Ex vivo effects of B12-5. […] One hour later, blood was drawn, followed by isolating platelets. P-selectin exposure (FIG. 19A) and αIIbβ3 integrin activation (FIG. 19B) were assessed in flow cytometry. FIG. 19C: Platelet aggregation was measured after treatment with 0.025 U/mL thrombin. The data represent the mean±SD (n=4). FIG. 19D: The plasma levels of B12-5 were analyzed by liquid chromatography-tandem mass spectrometry (LC-MS/MS) after intravenous injection of the compound (5 μg/g BW) into WT mice and quantified by comparison with a standard curve of B12-5 (mean±SD, n=3). […] The median integrated fluorescence intensities of anti-CD42c (F platelet) and anti-fibrin (F fibrin) antibodies (n=37-42 arterioles in 6 mice per group). Quantification of the antibody signal at a different time point after laser injury. […] Thirty minutes later, tail bleeding times and Hb contents were measured after amputation of the tail tip. […] Twenty-three hours later, neurological deficits were assessed by the Bederson score and grip test, and infarct volume was measured as described in Methods. […] Twenty-three hours later, the neurological deficit and infarct volume were measured as described above. […]

O=C(CSc1nc(O)cc(O)n1)N1c2ccccc2Sc2ccccc21 [B12-5]
inhibitory effects ex vivo (2 μg/g BW, data not shown): did not show inhibitory effects
P-selectin exposure, αIIbβ3 integrin activation, and aggregation ex vivo (iv 5 μg/g BW, blood drawn 1 hour later): significantly inhibited
